Test system: carrageenan-induced oedema and allodynia
Assay: Carrageenan model: weight bearing (allodynia) and paw oedema of the inflamed hind paw
Format: in vivo, rat
Conditions: for % Weight on inflammed paw (Allodynia): 3 h after intraplantar 2% carrageenan, 50% = no pain; for % Inhibition of carrageenan-induced allodynia / % Inhibition of carrageenan-induced oedema: compared to vehicle control; for % Inhibition of carrageenan-induced oedema: plethysmometer
Method: Carrageenan model for (2S, 3S, 4R, 5R)-2-(5 tert-butyl-[1,3,4]oxadiazol-2-yl)-5-[6-(4-chloro-2-fluoro-phenylamino)-purin-9-yl]-tetrahvdro-furan-3,4-diol (Adenosine A1 agonist) and alosetron.
Male Random Hooded rats (180-220 g) were used. The test compound or vehicle was administered 30 mins before the 2nd test compound or vehicle. The test compounds and vehicles used were: (i) Compound A in 1% DMSO, 66% Peg400, 33% distilled water and (ii) alosetron in saline. Both test compounds were administered via the oral route. After a further 30 mins 100 ul of 2% carrageenan was injected intraplantar into the left hind paw and the animals were then returned to their cages. Three hours later, behavioural testing of the carrageenan-induced decrease in weight on the inflamed left hind paw (% weight on the inflammed left hind paw) and associated oedema was assessed. Weight bearing was measured using the dual channel weight averager and paw oedema was assessed using a plethysmometer. The dual channel weight averager is commercially available and is described in the following abstract: Validation of the dual channel weight averager as an instrument for the measurement of inflammatory pain, N. M. Clayton et al., 1997 British Journal Pharmacol. 120, 219P.
Note: In the absense of pain, weight on the hind paws would be evenly distributed, i.e. 50% on each hind paw.
Note: Oedema is the presence of abnormally large amounts of fluid in the intercellular tissue spaces of the body and in the present example is used to provide a measure of inflammation (or anti-oedemic). Allodynia is a sensation of pain resulting from a non-injurious stimulus such as normal heat, cold or pressure on skin and in the present example the weight-bearing (allodynia) effect in used to provide a measure of analgesia.

SMILES	% Weight on inflammed paw (Allodynia) (Alosetron 0.3 mg/kg oral) [%]	% Inhibition of carrageenan-induced allodynia (Alosetron 0.3 mg/kg oral) [%]	% Inhibition of carrageenan-induced oedema (Alosetron 0.3 mg/kg oral) [%]	% Weight on inflammed paw (Allodynia) (Compound A 0.4 mg/kg oral) [%]	% Inhibition of carrageenan-induced allodynia (Compound A 0.4 mg/kg oral) [%]	% Inhibition of carrageenan-induced oedema (Compound A 0.4 mg/kg oral) [%]
Cc1[nH]cnc1CN1CCc2c(c3ccccc3n2C)C1=O [Alosetron, 2,3,4,5-tetrahydro-5-methyl-2-[(5-methyl-1H-imidazol-4-yl)methyl]-1H-pyrido[4,3-b]indol-1-one]	33.6 ± 5.5	45.1 ± 18.4	28.2 ± 6.3			
CC(C)(C)c1nnc([C@H]2O[C@@H](n3cnc4c(Nc5ccc(Cl)cc5F)ncnc43)[C@H](O)[C@@H]2O)o1 [Compound A, (2S, 3S, 4R, 5R)-2-(5 tert-butyl-[1,3,4]oxadiazol-2-yl)-5-[6-(4-chloro-2-fluoro-phenylamino)-purin-9-yl]-tetrahydro-furan-3,4-diol]				20.7 ± 4.3	2.1 ± 14.3	−3.1 ± 8.2

Reference: patent US20030018008A1, “Formulations of adenosine a1 agonists” (priority 1999, published 2003)
